Experimental data taken from patent US9833497B2, “Human originated EGF domain proteins and use of the same” (CHENGDU SOURCEBIO LIMITED-LIABILITY COMPANY, priority 2013, dated 2017).

Columns and labels:
Assay type in all cases: cell-based
E. coli BL21 = assay: MIC against Gram-negative bacteria: E. coli BL21; details: 5×10^5 CFU/mL
Outline: (§1)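 Inocula prepared by growing LB cultures at 37° C to 0.5 McFarland, centrifuging at 4000×g, and resuspending in fresh medium. Final density 5×10^5 CFU/mL per well with two-fold dilutions of purified EGF domain protein; shaking incubation at 37° C.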

Pseudomonas aeruginosa = assay: MIC against Gram-negative bacteria: Pseudomonas aeruginosa; details: 5×10^5 CFU/mL
Outline: as §1

Klebsiella pneumonia = assay: MIC against Gram-negative bacteria: Klebsiella pneumonia; details: 5×10^5 CFU/mL
Outline: as §1

E. coli DH5α = assay: Antibacterial activity: MIC and growth curve against E. coli DH5α in 96-well plate; details: minimal inhibitory concentration against E. coli DH5α; 96-well plate, 5×10^5 CFU/mL, 37° C., judged after 8 h
Outline: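 Log-phase bacteria (OD600 ~0.5) resuspended in LB at 5×10^5 CFU/mL, exposed to recombinant protein at 50, 25, 12.5 μg/mL final in triplicate, 37 °C shaking at 175 rpm. OD600 read every 30 min; MIC is lowest concentration showing no growth.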

Serratia marcescens = assay: MIC against Gram-negative bacteria: Serratia marcescens; details: 5×10^5 CFU/mL
Outline: as §1

Citrobacter diversus = assay: MIC against Gram-negative bacteria: Citrobacter diversus; details: 5×10^5 CFU/mL
Outline: as §1

Moraxella catarrhalis = assay: MIC against Gram-negative bacteria: Moraxella catarrhalis; details: 5×10^5 CFU/mL
Outline: as §1

Enterobacter cloacae = assay: MIC against Gram-negative bacteria: Enterobacter cloacae; details: 5×10^5 CFU/mL
Outline: as §1

Aeromonas hydrophila = assay: MIC against Gram-negative bacteria: Aeromonas hydrophila; details: 5×10^5 CFU/mL
Outline: as §1

Proteus mirabilis = assay: MIC against Gram-negative bacteria: Proteus mirabilis; details: 5×10^5 CFU/mL
Outline: as §1

Proteus vulgaris = assay: MIC against Gram-negative bacteria: Proteus vulgaris; details: 5×10^5 CFU/mL
Outline: as §1

[1] = 10 h cultivation at 37° C., two-fold serial dilution
[2] = P. aeruginosa, 10 h cultivation at 37° C.
[3] = K. pneumonia, 10 h cultivation at 37° C.
[4] = S. marcescens, 10 h cultivation at 37° C.
[5] = C. diversus, 10 h cultivation at 37° C.
[6] = M. catarrhalis, 10 h cultivation at 37° C.
[7] = E. cloacae, 10 h cultivation at 37° C.
[8] = A. hydrophila, 10 h cultivation at 37° C.
[9] = P. mirabilis, 10 h cultivation at 37° C.
[10] = P. vulgaris, 10 h cultivation at 37° C.

“PRT1187 (NTNDCNPLPCYNGGICVDGVNWFRCECAPGFAGPDCR; listed as Homo sapiens)” was tested, and the “MIC E. coli BL21” value (E. coli BL21; [1]) was 25 µg/mL, the “MIC P. aeruginosa” value (Pseudomonas aeruginosa; [1]) was 12.5 µg/mL and the “MIC K. pneumonia” value (Klebsiella pneumonia; [1]) was 25 µg/mL. For the same substance, the MIC (E. coli DH5α) was 50 µg/mL, the “MIC S. marcescens” value (Serratia marcescens; [1]) was 12.5 µg/mL and the “MIC C. diversus” value (Citrobacter diversus; [1]) was 12.5 µg/mL. The “MIC M. catarrhalis” value (Moraxella catarrhalis; [1]) was 12.5 µg/mL, the “MIC E. cloacae” value (Enterobacter cloacae; [1]) was 25 µg/mL and the “MIC A. hydrophila” value (Aeromonas hydrophila; [1]) was 12.5 µg/mL. The “MIC P. mirabilis” value (Proteus mirabilis; [1]) was 25 µg/mL and the “MIC P. vulgaris” value (Proteus vulgaris; [1]) was 12.5 µg/mL.
With “PRT265 (CQDGHGGCSEHANCSQVGTMVTCTCLPDYEGDGWSC; listed as Homo sapiens)” the “MIC (μg/mL) E. coli BL21” value (E. coli BL21; 10 h cultivation at 37° C.) was 12.5 µg/mL, the “MIC (μg/mL) P. aeruginosa” value (Pseudomonas aeruginosa; [2]) was 25 µg/mL and the “MIC (μg/mL) K. pneumonia” value (Klebsiella pneumonia; [3]) was 12.5 µg/mL. The MIC (E. coli DH5α) was 25 µg/mL, the “MIC (μg/mL) S. marcescens” value (Serratia marcescens; [4]) was 25 µg/mL and the “MIC (μg/mL) C. diversus” value (Citrobacter diversus; [5]) was 25 µg/mL. For the same substance, the “MIC (μg/mL) M. catarrhalis” value (Moraxella catarrhalis; [6]) was 25 µg/mL, the “MIC (μg/mL) E. cloacae” value (Enterobacter cloacae; [7]) was 25 µg/mL and the “MIC (μg/mL) A. hydrophila” value (Aeromonas hydrophila; [8]) was 12.5 µg/mL. The “MIC (μg/mL) P. mirabilis” value (Proteus mirabilis; [9]) was 25 µg/mL and the “MIC (μg/mL) P. vulgaris” value (Proteus vulgaris; [10]) was 50 µg/mL.
For “PRT444 (GISECSSQPCQNGGTCVEGVNQYRCICPPGRTGNRCQ; listed as Homo sapiens)”, the “MIC against E. coli BL21” value (E. coli BL21; 96-well plate, 37° C., 10 h) was 12.5 µg/mL, the “MIC against P. aeruginosa” value (Pseudomonas aeruginosa; 96-well plate, 37° C., 10 h) was 25 µg/mL and the “MIC against K. pneumonia” value (Klebsiella pneumonia; 96-well plate, 37° C., 10 h) was 50 µg/mL. For the same substance, the MIC (E. coli DH5α) was 25 µg/mL, the “MIC against S. marcescens” value (Serratia marcescens; 96-well plate, 37° C., 10 h) was 12.5 µg/mL and the “MIC against C. diversus” value (Citrobacter diversus; 96-well plate, 37° C., 10 h) was 12.5 µg/mL. For the same substance, the “MIC against M. catarrhalis” value (Moraxella catarrhalis; 96-well plate, 37° C., 10 h) was 50 µg/mL, the “MIC against E. cloacae” value (Enterobacter cloacae; 96-well plate, 37° C., 10 h) was 12.5 µg/mL and the “MIC against A. hydrophila” value (Aeromonas hydrophila; 96-well plate, 37° C., 10 h) was 50 µg/mL. For the same substance, the “MIC against P. mirabilis” value (Proteus mirabilis; 96-well plate, 37° C., 10 h) was 12.5 µg/mL and the “MIC against P. vulgaris” value (Proteus vulgaris; 96-well plate, 37° C., 10 h) was 50 µg/mL.
With “PRT646 (DIDECTQVQHLCSQGRCENTEGSFLCICPAGFMASEEGTNCI; listed as Homo sapiens)” the “MIC E. coli BL21” value (E. coli BL21; 96-well plate, 37° C., 10 h) was 12.5 µg/mL, the “MIC P. aeruginosa” value (Pseudomonas aeruginosa; 96-well plate, 37° C., 10 h) was 12.5 µg/mL and the “MIC K. pneumonia” value (Klebsiella pneumonia; 96-well plate, 37° C., 10 h) was 12.5 µg/mL. For the same substance, the MIC (E. coli DH5α) was 12.5 µg/mL, the “MIC S. marcescens” value (Serratia marcescens; 96-well plate, 37° C., 10 h) was 50 µg/mL and the “MIC C. diversus” value (Citrobacter diversus; 96-well plate, 37° C., 10 h) was 50 µg/mL. The “MIC M. catarrhalis” value (Moraxella catarrhalis; 96-well plate, 37° C., 10 h) was 25 µg/mL, the “MIC E. cloacae” value (Enterobacter cloacae; 96-well plate, 37° C., 10 h) was 12.5 µg/mL and the “MIC A. hydrophila” value (Aeromonas hydrophila; 96-well plate, 37° C., 10 h) was 25 µg/mL. The “MIC P. mirabilis” value (Proteus mirabilis; 96-well plate, 37° C., 10 h) was 12.5 µg/mL and the “MIC P. vulgaris” value (Proteus vulgaris; 96-well plate, 37° C., 10 h) was 25 µg/mL.
For “PRT197 (LGYDCTTDKCNDRGVCNNKKHCHCSASYLPPDCS; listed as Homo sapiens)”, the “MIC (μg/mL) E. coli BL21” value (E. coli BL21; 10 h cultivation at 37° C.) was 12.5 µg/mL, the “MIC (μg/mL) P. aeruginosa” value (Pseudomonas aeruginosa; [2]) was 50 µg/mL and the “MIC (μg/mL) K. pneumonia” value (Klebsiella pneumonia; [3]) was 12.5 µg/mL. The MIC (E. coli DH5α) was 50 µg/mL, the “MIC (μg/mL) S. marcescens” value (Serratia marcescens; [4]) was 12.5 µg/mL and the “MIC (μg/mL) C. diversus” value (Citrobacter diversus; [5]) was 12.5 µg/mL. For the same substance, the “MIC (μg/mL) M. catarrhalis” value (Moraxella catarrhalis; [6]) was 12.5 µg/mL, the “MIC (μg/mL) E. cloacae” value (Enterobacter cloacae; [7]) was 50 µg/mL and the “MIC (μg/mL) A. hydrophila” value (Aeromonas hydrophila; [8]) was 12.5 µg/mL. For the same substance, the “MIC (μg/mL) P. mirabilis” value (Proteus mirabilis; [9]) was 12.5 µg/mL and the “MIC (μg/mL) P. vulgaris” value (Proteus vulgaris; [10]) was 12.5 µg/mL.
With “PRT39 (PVRDCSRNNGGCTRNFKCVSDRQVDSSGCVCPEELKPMKDGSGCY; listed as Homo sapiens)” the “MIC (μg/mL) E. coli BL21” value (E. coli BL21; 96-well plate, 37° C., 10 h) was 25 µg/mL, the “MIC (μg/mL) P. aeruginosa” value (Pseudomonas aeruginosa; Pseudomonas aeruginosa, 96-well plate, 37° C., 10 h) was 50 µg/mL and the “MIC (μg/mL) K. pneumonia” value (Klebsiella pneumonia; Klebsiella pneumonia, 96-well plate, 37° C., 10 h) was 50 µg/mL. For the same substance, the MIC (E. coli DH5α) was 50 µg/mL, the “MIC (μg/mL) S. marcescens” value (Serratia marcescens; Serratia marcescens, 96-well plate, 37° C., 10 h) was 12.5 µg/mL and the “MIC (μg/mL) C. diversus” value (Citrobacter diversus; Citrobacter diversus, 96-well plate, 37° C., 10 h) was 50 µg/mL. For the same substance, the “MIC (μg/mL) M. catarrhalis” value (Moraxella catarrhalis; Moraxella catarrhalis, 96-well plate, 37° C., 10 h) was 12.5 µg/mL, the “MIC (μg/mL) E. cloacae” value (Enterobacter cloacae; Enterobacter cloacae, 96-well plate, 37° C., 10 h) was 25 µg/mL and the “MIC (μg/mL) A. hydrophila” value (Aeromonas hydrophila; Aeromonas hydrophila, 96-well plate, 37° C., 10 h) was 50 µg/mL. The “MIC (μg/mL) P. mirabilis” value (Proteus mirabilis; Proteus mirabilis, 96-well plate, 37° C., 10 h) was 25 µg/mL and the “MIC (μg/mL) P. vulgaris” value (Proteus vulgaris; Proteus vulgaris, 96-well plate, 37° C., 10 h) was 12.5 µg/mL.
